According to patent publication US7442713B2, “2-thio-substituted imidazole derivatives and their use in pharmaceutics” (Merckle GmbH, priority 2002, dated 2008):
Where two headings read alike, the source gives them in different places.

Tests used:
[1] = target: activated p38α (Homo sapiens, UniProt Q16539); experiment: Kinase assay (p38α, ATF2 substrate, ELISA read-out); assay type: biochemical
Procedure: At 37° C., microtiter plates were coated with 50 μl of ATF2 solution ([…]) for one hour. The plates were washed three times with water, and 50 μl of kinase mixture (50 mM tris-HCl, 10 mM MgCl2, 10 mM β-glycerol phosphate, 10 μg/ml BSA, 1 mM DTT, 100 μM ATP, 100 μM Na3VO4, 10 ng of activated p38α) with or without inhibitor were then added into the wells, and the plates were incubated at 37° C. for 1 hour. The plates were washed three times and then incubated at 37° C. with phosphorus-ATF-2 antibodies for one hour. Once more, the plates were washed three times, and goat-anti-rabbit IgG labeled with alkaline phosphatase was then added at 37° C. for one hour (to immobilize antibody-phosphorylated protein-substrate complex). After washing three times, the alkaline phosphatase-substrate solution (3 mM 4-NPP, 50 mM NaHCO3, 50 mM MgCl2, 100 μl/well) was added at 37° C. for 1.5 hours. The formation of 4-nitrophenolate was measured at 405 nm using a microtiter plate reader. The IC50 values were calculated.

[2] = system: IL-1β; experiment: In vitro test of cytokine release, LPS-stimulated human whole blood / PBMCs: IL-1β; assay type: cell-based; settings: PBMC, LPS stimulation, ELISA, read-out: Cytokines IC50 IL-1β
Procedure: The compounds or compositions according to the invention can be administered to mammals (man or animal) in a dose of from about 0.5 mg to 100 mg per kg of body weight per day. They may be administered in one individual dose or in a plurality of doses. The activity spectrum of the compounds as inhibitors of cytokine release was examined using the test systems below, as described by C. Donat and S. Laufer in Arch. Pharm. Pharm. Med. Chem. 333, Suppl. 1, 1-40, 2000.
In vitro Test with Human Whole Blood
The test substance is added to samples of human potassium-EDTA whole blood (of 400 μl each) and the samples are preincubated in a CO2 incubator (5% CO2; 95% moisture-saturated air) at 37° C. for 15 min. The samples are then stimulated with 1 μg/ml of LPS (E. coli 026:B6) at 37° C. in a CO2 incubator (5% CO2; 95% moisture-saturated air) for 4 hours. The reaction is stopped by placing the samples on ice, adding DPBS buffer and then centrifuging at 1000*g for 15 min. The amount of IL-1β and TNFα in the plasma supernatant is then determined by ELISA.
1) The mononuclear cells (PBMCs) from human potassium-EDTA whole blood, diluted 1:3, are isolated by density gradient centrifugation (Histopaque®-1.077). The cells are washed twice with DPBS buffer, resuspended in macrophage SFM medium and adjusted to a cell count of 1*10^6 cells/ml.
The resulting PBMCs suspension (samples of in each case 390 μl) and the test substance are preincubated at 37° C. in a CO2 incubator (5% CO2; 95% moisture-saturated air) for 15 min. The samples are then stimulated with in each case […] of LPS (E. coli 026:B6) at 37° C. in a CO2 incubator (5% CO2; 95% moisture-saturated air) for 4 hours. The reaction is stopped by placing the samples on ice, adding DPBS buffer and then centrifuging at 15 880*g for 12 min. The amount of IL-1β and TNFα in the plasma supernatant is then determined by ELISA.

[3] = Table 1, 100 μM ATP, 10 ng activated p38α, read-out: Kinase assay IC50

activated p38α, sequence (Q16539 whole entry): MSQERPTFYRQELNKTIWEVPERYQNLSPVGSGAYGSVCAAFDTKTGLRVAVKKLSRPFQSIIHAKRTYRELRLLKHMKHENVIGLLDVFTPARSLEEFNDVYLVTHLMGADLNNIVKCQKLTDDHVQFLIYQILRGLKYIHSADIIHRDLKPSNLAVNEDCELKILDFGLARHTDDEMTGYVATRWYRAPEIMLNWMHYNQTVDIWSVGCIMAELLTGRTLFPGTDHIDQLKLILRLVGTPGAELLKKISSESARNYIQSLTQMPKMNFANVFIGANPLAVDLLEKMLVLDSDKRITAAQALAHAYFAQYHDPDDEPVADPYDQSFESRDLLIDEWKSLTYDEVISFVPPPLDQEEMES

Row | SMILES | IC50 [1, 3] [nM] | also measured
1 | Cn1c(SCCC(=O)NC(CO)(CO)CO)nc(-c2ccc(F)cc2)c1-c1ccncc1 [Example 43, 3-[4-(4-Fluorophenyl)-1-methyl-5-pyridin-4-yl-1H-imidazol-2-ylsulfanyl]-N-(2-hydroxy-1,1-bishydroxymethylethyl)propionamide] | 12000 | 
2 | Cn1c(SCCN2C(=O)c3ccccc3C2=O)nc(-c2ccc(F)cc2)c1-c1ccncc1 [Example 48, 2-{2-[4-(4-Fluorophenyl)-1-methyl-5-pyridin-4-yl-1H-imidazol-2-ylsulfanyl]ethyl}isoindole-1,3-dione] |  | Kinase assay % at 10^−6 mol/l ([1]; Table 1): 30.9% at 10^−6 mol/l
3 | Cn1c(SCCCCl)nc(-c2ccc(F)cc2)c1-c1ccncc1 [Example 47, 4-[2-(3-Chloropropylsulfanyl)-5-(4-fluorophenyl)-3-methyl-3H-imidazol-4-yl]pyridine] | 3400 | 
4 | Cn1c(SCC(=O)N(CCO)CCO)nc(-c2ccc(F)cc2)c1-c1ccncc1 [Example 41, 2-[4-(4-Fluorophenyl)-1-methyl-5-pyridin-4-yl-1H-imidazol-2-ylsulfanyl]-N,N-bis(2-hydroxyethyl)acetamide] | 410 | 
5 | CCOC(=O)C(=O)CSc1nc(-c2ccc(F)cc2)c(-c2ccncc2)n1C [Example 45, Ethyl 3-[4-(4-fluorophenyl)-1-methyl-5-pyridin-4-yl-1H-imidazol-2-ylsulfanyl]-2-oxopropionate] | 7000 | 
6 | Cn1c(SCCC(=O)O)nc(-c2ccc(F)cc2)c1-c1ccnc(N)c1 [Example 72, 3-[5-(2-Aminopyridin-4-yl)-4-(4-fluorophenyl)-1-methyl-1H-imidazol-2-ylsulfanyl]propionic acid] |  | inhibition at 1 µM ([1]; Table 2): 64%
7 | Cn1c(SCC(=O)N2CCOCC2)nc(-c2ccc(F)cc2)c1-c1ccncc1 [Example 32, 2-[4-(4-Fluorophenyl)-1-methyl-5-pyridin-4-yl-1H-imidazol-2-ylsulfanyl]-1-morpholin-4-ylethanone] | 90000 | 
8 | Cn1c(SCCCC(=O)O)nc(-c2ccc(F)cc2)c1-c1ccncc1 [Example 39, 4-[4-(4-Fluorophenyl)-1-methyl-5-pyridin-4-yl-1H-imidazol-2-ylsulfanyl]butanoic acid] | 5000 | 
9 | CCOC(=O)CC(=O)CSc1nc(-c2ccc(F)cc2)c(-c2ccncc2)n1C [Example 30, Ethyl 4-[4-(4-fluorophenyl)-1-methyl-5-pyridin-4-yl-1H-imidazol-2-ylsulfanyl]-3-oxobutanoate] | 4800 | 
10 | CC(=O)Nc1cc(-c2c(-c3ccc(F)cc3)nc(SCC(O)CO)n2C)ccn1 (centres unmarked) [Example 67, N-{4-[2-(2,3-dihydroxypropanesulfanyl)-5-(4-fluorophenyl)-3-methyl-3H-imidazol-4-yl]pyridin-2-yl}acetamide] |  | inhibition at 1 µM ([1]; Table 2): 77%; IC50 ([1]; Table 2, read-out: p38α IC50): 430 nM
11 | Cn1c(SCC(=O)O)nc(-c2ccc(F)cc2)c1-c1ccncc1 [Example 36, 2-[4-(4-Fluorophenyl)-1-methyl-5-pyridin-4-yl-1H-imidazol-2-ylsulfanyl]acetic acid] | 1600 | 
12 | Cn1c(SCC(=O)NCC(O)CO)nc(-c2ccc(F)cc2)c1-c1ccncc1 (centres unmarked) [Example 42, N-(2,3-Dihydroxypropyl)-2-[4-(4-fluorophenyl)-1-methyl-5-pyridin-4-yl-1H-imidazol-2-ylsulfanyl]acetamide] |  | Kinase assay % at 10^−4 mol/l ([1]; Table 1, at 10^−4 mol/l): 90.4% at10^−4 mol/l
13 | O=C1c2ccccc2C(=O)N1CCCSc1nc(-c2ccc(F)cc2)c(-c2ccncc2)[nH]1 [Example 25d, 5-(4-Fluorophenyl)-4-(4-pyridinyl)imidazole-2-thio-3-propyl-N-phthalimide] | 5500 | IC50 [2]: 920 nM
14 | COC(=O)/C=C/CSc1nc(-c2ccc(F)cc2)c(-c2ccncc2)n1C [Example 31, Methyl 4-[4-(4-fluorophenyl)-1-methyl-5-pyridin-4-yl-1H-imidazol-2-ylsulfanyl]but-2-enoate] | 42000 | 
15 | CCOC(=O)C(Sc1nc(-c2ccc(F)cc2)c(-c2ccncc2)n1C)C(C)=O (centres unmarked) [Example 29, Ethyl 2-[4-(4-fluorophenyl)-1-methyl-5-pyridin-4-yl-1H-imidazol-2-ylsulfanyl]-3-oxobutanoate] |  | Kinase assay % at 10^−5 mol/l ([1]; Table 1): 13.8% at10^−5 mol/l
16 | Cn1c(SCCCN2C(=O)c3ccccc3C2=O)nc(-c2ccc(F)cc2)c1-c1ccncc1 [Example 49, 2-{3-[4-(4-Fluorophenyl)-1-methyl-5-pyridin-4-yl-1H-imidazol-2-ylsulfanyl]propyl}isoindole-1,3-dione] | 2400 | 
17 | Cn1c(SCCC(=O)O)nc(-c2ccc(F)cc2)c1-c1ccncc1 [Example 37, 3-[4-(4-Fluorophenyl)-1-methyl-5-pyridin-4-yl-1H-imidazol-2-ylsulfanyl]propionic acid] | 2000 | 
18 | CC(=O)CC(=O)CSc1nc(-c2ccc(F)cc2)c(-c2ccncc2)n1C [Example 38, 1-[4-(4-Fluorophenyl)-1-methyl-5-pyridin-4-yl-1H-imidazol-2-ylsulfanyl]pentane-2,4-dione] |  | Kinase assay % at 10^−6 mol/l ([1]; Table 1): 12.22% at10^−6 mol/l
19 | Cn1c(SCCN)nc(-c2ccc(F)cc2)c1-c1ccncc1 [Example 59, 2-[4-(4-Fluorophenyl)-1-methyl-5-pyridin-4-yl-1H-imidazol-2-ylsulfanyl]ethylamine] | 1800 | 
20 | Cn1c(SCCCN)nc(-c2ccc(F)cc2)c1-c1ccncc1 [Example 60] | 1400 | 
21 | CCOC(=O)CCSc1nc(-c2ccc(F)cc2)c(-c2ccnc(NC(C)=O)c2)n1C [Example 70, Ethyl 3-[5-(2-acetylaminopyridin-4-yl)-4-(4-fluorophenyl)-1-methyl-1H-imidazol-2-ylsulfanyl]propionate] |  | inhibition at 1 µM ([1]; Table 2): 83%; IC50 ([1]; Table 2, read-out: p38α IC50): 530 nM
22 | Cn1c(SCC(O)CO)nc(-c2ccc(F)cc2)c1-c1ccncc1 (centres unmarked) [Example 57, 3-[4-(4-Fluorophenyl)-1-methyl-5-pyridin-4-yl-1H-imidazol-2-yl-sulfanyl]propan-1,2-diol] |  | IC50 ([1]; Table 2, read-out: p38α IC50): 3600 nM
23 | CC(=O)CSc1nc(-c2ccc(F)cc2)c(-c2ccncc2)n1C [Example 26, 1-[4-(4-Fluorophenyl)-1-methyl-5-pyridin-4-yl-1H-imidazol-2-ylsulfanyl]propan-2-one] |  | IC50 [2]: 83 nM; Kinase assay % at 10^−5 mol/l ([1]; Table 1): 37.0% at10^−5 mol/l
24 | Cn1c(SCC(=O)NC(CO)(CO)CO)nc(-c2ccc(F)cc2)c1-c1ccncc1 [Example 40, 2-[4-(4-Fluorophenyl)-1-methyl-5-pyridin-4-yl-1H-imidazol-2-ylsulfanyl]-N-(2-hydroxy-1,1-bishydroxymethylethyl)acetamide] | 800 | 
25 | Cn1c(SCC(=O)N(CCO)CCO)nc(-c2ccc(F)cc2)c1-c1ccnc(N)c1 [Example 71, 2-[5-(2-Aminopyridin-4-yl)-4-(4-fluorophenyl)-1-methyl-1H-imidazol-2-ylsulfanyl]-N,N-bis(2-hydroxyethyl)acetamide] |  | inhibition at 1 µM ([1]; Table 2): 76%; IC50 ([1]; Table 2, read-out: p38α IC50): 900 nM
26 | Cn1c(SCCC(=O)N(CCO)CCO)nc(-c2ccc(F)cc2)c1-c1ccncc1 [Example 44, 3-[4-(4-Fluorophenyl)-1-methyl-5-pyridin-4-yl-1H-imidazol-2-ylsulfanyl]-N,N-bis(2-hydroxyethyl)propionamide] | 30000 | 
27 | CC(=O)Nc1cc(-c2c(-c3ccc(F)cc3)nc(SCC(=O)N(CCO)CCO)n2C)ccn1 [Example 69, 2-[5-(2-Acetylaminopyridin-4-yl)-4-(4-fluorophenyl)-1-methyl-1H-imidazol-2-ylsulfanyl]-N,N-bis(2-hydroxyethyl)acetamide] |  | inhibition at 1 µM ([1]; Table 2): 90%; IC50 ([1]; Table 2, read-out: p38α IC50): 250 nM
28 | Cn1c(SCC(=O)N2CCCCC2)nc(-c2ccc(F)cc2)c1-c1ccncc1 [Example 33, 2-[4-(4-Fluorophenyl)-1-methyl-5-pyridin-4-yl-1H-imidazol-2-ylsulfanyl]-1-piperidin-1-ylethanone] | 75000 | 
29 | CC(=O)C(Sc1nc(-c2ccc(F)cc2)c(-c2ccncc2)n1C)C(C)=O [Example 28, 3-[4-(4-Fluorophenyl)-1-methyl-5-pyridin-4-yl-1H-imidazol-2-ylsulfanyl]pentane-2,4-dione] | 9500 | 
